Laboratory results taken from US20040014772A1, “Compositions and methods for treating glomerular disorders” (priority 2000, published 2004).
“Also recorded” adds a separate entry of the source.

Experiments:
[1] = test system: PAN-induced nephrotic syndrome; assay: PAN-induced nephrotic syndrome: proteinuria and serum albumin; format: in vivo, rat; conditions: PAN-treated rats; for proteinuria: daily urine protein to day 7; for serum albumin: day 7
Protocol: (§1) Male Sprague-Dawley rats weighing 200-250 g were injected either saline or a single intravenous injection of PAN (Sigma, St. Louis) in a dose of 7.5 mg/100g BW (day 0) as described in Ueda et al, 19996, Kidney Intl. 49:370-373. Animals were housed in separate metabolic cages and allowed free access to rat chow (Purina). Daily urine protein excretion was determined and animals were sacrificed on day 7. Blood was obtained for the measurement of serum albumin and the evaluation of renal function as measured by blood urea nitrogen (BUN) and plasma creatinine. Cell fraction of the glomeruli was prepared for bleomycin detectable iron assay. The microsome fraction was utilized for the measurement of CYP content.
(§2) Two different general CYP inhibitors were used, cimetidine (CM) and piperonyl butoxide (PB). Cimetidine has imidazole and cyano groups that inhibit CYP by interacting with the heme moiety. […] To determine the effect of the CYP inhibitors in PAN- induced nephrotic syndrome, CM (120 mg/kg BW) was administered intraperitoneal 1 h prior to PAN injection and then twice a day. Piperonyl butoxide (PB) which yields a metabolite that binds to the heme moiety of CYP, was given intraperitoneal (400 mg/kg BW) 4h before PAN injection and then every other day.
(§3) PIP is believed to inhibit CYP2B1 by forming an inhibitory complex therewith. PIP was administered at a dose of 85 mg/kg of body weight (BW) by an intraperitoneal injection 16 hours prior to PAN injection and then once a day.

[2] = test system: glomeruli of PAN-treated rats; assay: Bleomycin detectable iron assay in glomeruli of PAN-treated rats; format: in vivo, rat; conditions: for bleomycin detectable iron content in the glomeruli: PAN-treated rats, CM 120 mg/kg, PB 400 mg/kg or PIP 85 mg/kg ip, 6 hours, day 4, day 7
Protocol: Glomeruli were isolated by a combination of sieving and differential centrifugation as described in Ueda et al, 19996, Kidney Intl. 49:370-373, and Baliga et al, 1992, Am. J. Physiol. 263:214-221. Glomeruli isolated from two rats were pooled together (as N of 1) for the isolation of microsomes. Iron capable of catalyzing free radical reactions was measured by bleomycin detectable iron assay as described by Gutteridge et al, 1981, Biochem. J. 199:263-265, Gutteridge et al, 1982, Biochem. J. 206:605-609, Baliga et al, 1993, Bioche.

ferritin = assay: Ferritin immunohistochemistry in kidney of PAN-treated rats; format: in vivo, rat
Protocol: Kidney cortical sections were fixed in 10% buffered formalin for 6 hours and embedded in paraffin. After deparaffinization and antigen retrieval, the sections were immunolabeled and visualized according to an avidin-biotin complex (ABC) method. The primary antibody for detection of ferritin was polyclonal anti-Ferritin (L subunit) antibody (605022; Boehringer Mannheim Corp., Indianapolis, Ind., USA).

[3] = test system: glomerular epithelial cells GEC; assay: PAN induced hydroxyl radical formation in GEC (deoxyribose degradation); format: cell-based, rat; conditions: PAN 1.5 mM 1 h; preincubation CM 2 mM, PB 25 μM, RN 1 mM, PIP 0.2 mM, pyruvate 10 mM
Protocol: 2-deoxy-D-ribose in a final concentration of 3 mM was added to the medium just prior to the incubation. At the end of the incubation, the incubation medium was collected for the measurement of hydroxyl radical formation by deoxyribose degradation method as in Baliga et al (Kidney Intl. 1996, 50:1118-1124.).
Confluent GEC monolayer was washed twice with HBSS and then incubated with 1.5 mM PAN in HBSS for a period of time before substantial cell killing occurs (1 h) at 37° C. 2-deoxy-D-ribose in a final concentration of 3 mM was added to the medium just prior to the incubation. At the end of the incubation, the incubation medium was collected for the measurement of hydroxyl radical formation by deoxyribose degradation method described in Baliga et al, 1996, Kidney Int. 50:1118-1124. To determine the effect of CYP inhibitors on the hydroxyl radical formation, GEC monolayers were preincubated with CM, RN or PB as mentioned above.

[4] = Weight loss/gain of rats before and after treatments (PAN-induced nephrotic syndrome); format: in vivo, rat; conditions: for Body weight After Treatment (day7): rats, day 7, PAN 7.5 mg/100 g BW iv, CM 120 mg/kg ip twice a day, PB 400 mg/kg ip every other day, means ± SE
Protocol: as §2
as §3, with “Also, the CYP2B1 inhibitor piperine (PIP), a methylenedioxyphenyl compound found in black and red pepper was used. PIP is” for “PIP is”

[5] = test system: glomerular epithelial cells GEC; assay: Intracellular H2O2 generation in GEC (DCF fluorescence); format: cell-based, rat; conditions: PAN 1.5 mM; CM, PIP, RN or pyruvate 10 mM
Protocol: The principle of this method is that the oxidation of 2′,7′-dichlorofluorescin-diacetate (DCFH-DA) in the presence of H2O2 produces the highly fluorescent compound 2′,7′-dichlorofluroescin (DCF) which can be measured by fluorometer. The intracellular generation of H2O2 in GEC was tested utilizing the microplate assay procedure described by Rosenkranz et al (J. Immunol. Methods, 1992, 156:39-45.). In brief, confluent GEC were harvested by trypsin and suspended in HBSS. After an equilibration period at 37° C. with constant shaking, they were transferred to a microplate (2×10^5-1×10^6 cells/well) and then incubated at 37° C. with equal volumes of DCFH-DA (10 μl/ml) and PAN (1.5 mM) for the planned time period. At the end of the incubation, the fluorescent intensity of the cell suspension was read using a fluorescence spectrophotometer (wavelength 485/535 nm) capable of reading microtiter plates.

HO-1 = HO-1 induction in GEC exposed to PAN (western blot); format: cell-based, rat; conditions: PIP 0.2 mM, CM 2 mM, pyruvate 10 mM
Text: (§4) The microsome fraction obtained was subjected to SDS-page electrophoresis in 1 mm slab gels. The separated forms were transferred from gel to a nitrocellulose sheet using a Mini Trans-blot electroblotting unit. The primary antibodies were monoclonal anti-HO-1 (OSA-111, StressGen, Victoria, BC, Canada) and monoclonal anti-CYP2B1 (PM25, Oxford Biomedical Research, Oxford, Mich., USA). Subsequent to primary and secondary antibody (peroxidase-labeled) treatment, the blots were visualized by enhanced chemiluminescence method.

cytochrome P450 = assay: Cytochrome P450 content of microsome fraction (CO difference spectrum); conditions: for CYP content in kidney / glomeruli: PAN-treated rats, day 7
Protocol: as §1

CYP2B1 = CYP2B1 content in GEC exposed to PAN (western blot); format: cell-based, rat; conditions: PAN 1.5 mM for 2 hr at 37° C.; CM 2 mM, PIP 0.2 mM, pyruvate 10 mM
Text: as §4

SMILES	proteinuria [1]	proteinuria ([1]; listed as C<)	serum albumin [1]	bleomycin detectable iron content in the glomeruli [2]	ferritin content in the glomeruli and the tubules (ferritin)	hydroxyl radical formation in GEC [3]	Body weight After Treatment (day7) [4]	intracellular H2O2 generation in GEC [5]	HO-1 induction in GEC (HO-1)	CYP content in kidney / glomeruli (cytochrome P450)	CYP2B1 content in GEC (CYP2B1)	catalytic iron content in the glomeruli (bleomycin detectable iron assay) ([2]; rats 7 days after PAN 7.5 mg/100 g BW iv, control value 39, N=3, P<0.01)	ascites and weight gain at the time of sacrifice ([4]; compared to control animals and those treated with CYP inhibitors)	CYP content in the liver (cytochrome P450; PAN treated vs untreated rats)
CN/C(=N/CCSCc1nc[nH]c1C)NC#N [CM, cimetidine]	substantial protection	significant protection	prevented	significantly prevent the increase; also recorded: significantly prevented this increase	markedly reduced the up-regulation	markedly reduce; also recorded: significantly reduced	253 ± 9 g	significantly decreased	significantly prevented the induction	significantly preserve	preserved	–	–	–
CN(C)c1ncnc2c1ncn2[C@@H]1O[C@H](CO)[C@@H](N)[C@H]1O [PAN, puromycin aminonucleoside]	significant proteinuria on the fourth day; also recorded: nephrotic range proteinuria	–	markedly decreased; also recorded: significant decrease	markedly elevated	significant increase	significant increase; also recorded: significant production	291 ± 8 g	marked increase	marked induction	not detectable	significant reduction	160 nmol/mg protein	developed ascites and significant weight gain	no difference
